Laboratory results: publication PMC7106896, “Synthesis and biological evaluation of 2-(4-methylsulfonyl phenyl) indole derivatives: multi-target compounds with dual antimicrobial and anti-inflammatory activities” (BMC Chemistry, 2020)

What was measured:
[1] = tested on: carrageenan-induced rat paw edema; test: Carrageenan-induced rat paw edema assay; format: in vivo; conditions: for Edema thickness (mm) ± SEM: n = 4
Description: Pretreatment of rats with compounds 7a–k, 8a–c, and 9a–c before injection with carrageenan in rat paw which induces inflammation and then the percentage of paw edema reduction was measured after certain hours according to previously reported procedures.

Ovine COX-1 = target: T1, Ovine COX-1 (Ovis aries, UniProt P05979); test: In vitro COX inhibition colorimetric assay; format: biochemical
T1 construct: purchased Cayman Chemical, Ann Arbor, MI, USA 760111
T1 sequence (P05979 25-600): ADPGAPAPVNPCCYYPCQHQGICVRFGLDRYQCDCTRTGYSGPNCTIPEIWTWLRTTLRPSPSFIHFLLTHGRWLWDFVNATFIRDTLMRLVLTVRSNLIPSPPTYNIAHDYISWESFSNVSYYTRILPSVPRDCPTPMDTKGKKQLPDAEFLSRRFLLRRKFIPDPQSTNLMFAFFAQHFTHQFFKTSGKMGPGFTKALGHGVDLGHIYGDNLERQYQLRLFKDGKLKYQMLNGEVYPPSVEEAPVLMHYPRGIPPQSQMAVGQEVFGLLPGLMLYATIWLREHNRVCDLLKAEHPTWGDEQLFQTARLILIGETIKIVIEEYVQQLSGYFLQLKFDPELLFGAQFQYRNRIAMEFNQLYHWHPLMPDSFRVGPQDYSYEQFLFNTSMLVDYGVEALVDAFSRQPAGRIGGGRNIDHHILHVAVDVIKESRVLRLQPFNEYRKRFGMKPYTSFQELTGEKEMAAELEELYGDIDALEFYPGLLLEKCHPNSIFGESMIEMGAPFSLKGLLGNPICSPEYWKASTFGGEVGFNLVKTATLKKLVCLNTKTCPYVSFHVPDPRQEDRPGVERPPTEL

[2] = tested on: Candida albicans (ATCC 90028); test: Antifungal screening (CO-ADD), growth inhibition at single concentration; format: cell-based; conditions: ATCC90028, at 32 µg/mL concentration, read-out: growth inhibition % Ca (C. albicans)
Description: (§1) The antimicrobial study was performed by CO-ADD (The Community for Antimicrobial Drug Discovery), funded by the Wellcome Trust (UK) and The University of Queensland (Australia). Evaluation of all synthesized compounds for their antimicrobial activities was done against five pathogenic bacteria, methicillin-resistant Staphylococcus aureus (ATCC 43300) as Gram-positive bacteria, Escherichia coli (ATCC 25922), Klebsiella pneumonia (ATCC 700603), Acinetobacter baumannii (ATCC 19606) and Pseudomonas aeruginosa (ATCC 27853) as Gram-negative bacteria and antifungal activity against two pathogenic fungal strains Candida albicans (ATCC 90028) and Cryptococcus neoformans var. grubii (H99; ATCC 208821) (Table 1).

human recombinant COX-2 = test: In vitro COX inhibition colorimetric assay; format: biochemical; conditions: COX-1 IC50/COX-2 IC50
[3] = tested on: Acinetobacter baumannii (ATCC 19606); test: Antimicrobial screening (CO-ADD), growth inhibition at single concentration; format: cell-based; conditions: ATCC19606, at 32 µg/mL concentration, read-out: growth inhibition % Ab (A. baumannii)
Description: as §1

[4] = tested on: Pseudomonas aeruginosa (ATCC 27853); test: as above; format: cell-based; conditions: ATCC27853, at 32 µg/mL concentration, read-out: growth inhibition % Pa (P. aeruginosa)
Description: as §1

[5] = tested on: methicillin-resistant Staphylococcus aureus (ATCC 43300); test: as above; format: cell-based; conditions: ATCC 43300 / MRSA, at 32 µg/mL concentration, read-out: growth inhibition % Sa (MRSA)
Description: as §1

[6] = tested on: Klebsiella pneumonia (ATCC 700603); test: as above; format: cell-based; conditions: Klebsiella pneumoniae, ATCC700603; at 32 µg/mL concentration; read-out: growth inhibition % Kp (K. pneumoniae)
Description: as §1

Compound | Edema inhibition % ([1]; 1 h) [%] | Edema thickness (mm) ± SEM ([1]; 1 h) [mm] | Edema inhibition % ([1]; 3 h) [%] | Edema thickness (mm) ± SEM ([1]; 3 h) [mm] | Edema inhibition % ([1]; 6 h) [%] | Edema thickness (mm) ± SEM ([1]; 6 h) [mm] | IC50 (Ovine COX-1) [µM] | inhibition at 32 µg/mL [2] [%] | melting point [°C] | Selectivity index (SI) (human recombinant COX-2) | inhibition at 32 µg/mL [3] [%] | inhibition at 32 µg/mL [4] [%] | inhibition at 32 µg/mL [5] [%] | inhibition at 32 µg/mL [6] [%]
Cc1ccc(-c2cc(C(F)(F)F)nn2-c2ccc(S(N)(=O)=O)cc2)cc1 [Celecoxib, celecoxib, reference compound] | 68.9 | 0.810 ± 0.074 | 95.5 | 0.100 ± 0.009 | 94.7 | 0.100 ± 0.005 | – | – | – | – | – | – | – | –
CS(=O)(=O)c1ccc(NN=Cc2c(-c3ccc(S(C)(=O)=O)cc3)[nH]c3ccccc23)cc1 [Compound 7b, 2-(4-(Methylsulfonyl)phenyl)-3-((2-(4-(methylsulfonyl)phenyl)hydrazono)methyl)-1H-indole] | 76.1 | 0.627 ± 0.045 | 91.2 | 0.196 ± 0.017 | 93.5 | 0.123 ± 0.009 | 12.4 | 9.55 | 228 to 230 | 124.10 | 35.5 | 3.8 | 25.6 | –
Cc1ccc2[nH]c(-c3ccc(S(C)(=O)=O)cc3)c(/C=N/Nc3ccc(S(C)(=O)=O)cc3)c2c1 [Compound 7d, 5-Methyl-2-(4-(methylsulfonyl)phenyl)-3-((2-(4-(methylsulfonyl)phenyl) hydraz-ono)methyl)-1H-indole] | 51.6 | 1.270 ± 0.015 | 77.5 | 0.502 ± 0.044 | 78.6 | 0.405 ± 0.018 | 10.4 | 2.54 | 262 to 264 | 69.33 | 35 | – | 15.6 | 4.86
Cc1ccc2[nH]c(-c3ccc(S(C)(=O)=O)cc3)c(/C=N/Nc3ccc(S(N)(=O)=O)cc3)c2c1 [Compound 7e, 4-(2-((5-Methyl-2-(4-(methylsulfonyl)phenyl)-1H-indol-3-yl)methylene) hydrazine-yl) benzenesulfonamide] | 53.9 | 1.209 ± 0.11 | 71.1 | 0.645 ± 0.01 | 79.9 | 0.381 ± 0.007 | 9.7 | 28.7 | 186 to 188 | 31.29 | 43.6 | – | 7.58 | –
Cc1ccc2[nH]c(-c3ccc(S(C)(=O)=O)cc3)c(C=NNc3ccc(F)cc3)c2c1 [Compound 7f, 3-((2-(4-Fluorophenyl)hydrazono)methyl)-5-methyl-2-(4-(methylsulfonyl)phenyl)-1H-indole] | 60.5 | 1.036 ± 0.009 | 72.7 | 0.609 ± 0.03 | 79.2 | 0.394 ± 0.01 | 9.73 | 3.5 | 159 to 161 | 57.23 | 66.7 | – | 8.33 | 8.05
CS(=O)(=O)c1ccc(-c2[nH]c3ccc(F)cc3c2C=NNc2ccc(F)cc2)cc1 [Compound 7j, 5-Fluoro-3-((2-(4-fluorophenyl)hydrazono)methyl)-2-(4-(methylsulfonyl)phenyl)-1H-indole] | 64.3 | 0.936 ± 0.064 | 78.6 | 0.477 ± 0.027 | 71 | 0.549 ± 0.013 | 10.8 | 1.91 | 200 to 202 | 98.18 | 46.2 | – | 30.6 | 12.3
CS(=O)(=O)c1ccc(-c2[nH]c3ccccc3c2-c2nc3cc(Cl)ccc3[nH]2)cc1 [Compound 8a, 5-Chloro-2-(2-(4-(methylsulfonyl)phenyl)-1H-indol-3-yl)-1H-benzo[d]imidazole] | 52.5 | 1.246 ± 0.076 | 58 | 0.937 ± 0.046 | 56.4 | 0.826 ± 0.078 | 10.6 | 7.71 | 210 to 212 | 81.84 | – | – | 13.6 | –
Cc1ccc2[nH]c(-c3ccc(S(C)(=O)=O)cc3)c(-c3nc4cc(Cl)ccc4[nH]3)c2c1 [Compound 8c, 5-Chloro-2-(5-methyl-2-(4-(methylsulfonyl)phenyl)-1H-indol-3-yl)-1H-benzo[d]imidazole] | 67.9 | 0.842 ± 0.062 | 71.9 | 0.627 ± 0.05 | 74.2 | 0.489 ± 0.032 | 11.2 | 1.65 | 217 to 219 | 93.58 | – | – | 4.62 | –
Cc1ccc2[nH]c(-c3ccc(S(C)(=O)=O)cc3)c(C=NO)c2c1 [Compound 9c, 5-Methyl-2-(4-(methylsulfonyl)phenyl)-1H-indole-3-carbaldehyde oxime] | 55.2 | – | 68.6 | 0.435 ± 0.033 | 61.7 | 0.504 ± 0.009 | 8.24 | 4.88 | 212 to 214 | 34.33 | 33.7 | – | – | 1.19
COc1ccc2c(c1)c(CC(=O)O)c(C)n2C(=O)c1ccc(Cl)cc1 [Indomethacin, indomethacin, reference compound] | 70.7 | 0.768 ± 0.050 | 96 | 0.075 ± 0.007 | 96.6 | 0.075 ± 0.004 | – | – | – | – | – | – | – | –
